Data as given in the supplement of paper PMC10307832.

How the values were obtained:
Experiment in all cases: relative viability (nuclei count vs DMSO), 5 days (fraction); higher = more cells survive
NCI-H460 = system: NCI-H460
Procedure, shortened: (§1)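 Lung cancer cell lines, seeded in 1536-well plates, were treated the following day by pin tool with a single drug or with five library-drug doses (not always all listed) in √10 steps on top of a fixed anchor-drug dose. Cells were fixed and nuclei stained in one step after 5 days, and nuclei were counted. Relative viability is the nuclei count for treated wells divided by that for vehicle wells, reported as medians of duplicate plates.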

NCI-H1734 = system: NCI-H1734
Procedure, shortened: as §1

NCI-H3122 = system: NCI-H3122
Procedure, shortened: as §1

NCI-H838 = system: NCI-H838
Procedure, shortened: as §1

NCI-H2347 = system: NCI-H2347
Procedure, shortened: as §1

NCI-H650 = system: NCI-H650
Procedure, shortened: as §1

NCI-H520 = system: NCI-H520
Procedure, shortened: as §1

NCI-H1944 = system: NCI-H1944
Procedure, shortened: as §1

NCI-H596 = system: NCI-H596
Procedure, shortened: as §1

EKVX = system: EKVX
Procedure, shortened: as §1

H3255 = system: H3255
Procedure, shortened: as §1

SW 1573 = system: SW 1573
Procedure, shortened: as §1

LK-2 = system: LK-2
Procedure, shortened: as §1

NCI-H1755 = system: NCI-H1755
Procedure, shortened: as §1

NCI-H2085 = system: NCI-H2085
Procedure, shortened: as §1

NCI-H358 = system: NCI-H358
Procedure, shortened: as §1

NCI-H1355 = system: NCI-H1355
Procedure, shortened: as §1

NCI-H1650 = system: NCI-H1650
Procedure, shortened: as §1

NCI-H2228 = system: NCI-H2228
Procedure, shortened: as §1

A-427 = system: A-427
Procedure, shortened: as §1

NCI-H1666 = system: NCI-H1666
Procedure, shortened: as §1

NCI-H322M = system: NCI-H322M
Procedure, shortened: as §1

CCCCCCCCCCCC1=C(O)C(=O)C=C(O)C1=O [Embelin] + CS(=O)(=O)CCNCc1ccc(-c2ccc3ncnc(Nc4ccc(OCc5cccc(F)c5)c(Cl)c4)c3c2)o1 [Lapatinib] (partner 2 µM)
relative viability (NCI-H460; first compound 0.08 µM): 1.04
relative viability (NCI-H460; first compound 0.8 µM): 1.1
relative viability (NCI-H460; first compound 8 µM): 1.1
relative viability (NCI-H1734; first compound 0.08 µM): 0.963
relative viability (NCI-H1734; first compound 0.8 µM): 1.28
relative viability (NCI-H1734; first compound 2.53 µM): 1.26
relative viability (NCI-H1734; first compound 8 µM): 1.12
relative viability (NCI-H3122; first compound 0.08 µM): 1.02
relative viability (NCI-H3122; first compound 0.8 µM): 0.977
relative viability (NCI-H3122; first compound 2.53 µM): 0.956
relative viability (NCI-H3122; first compound 8 µM): 1.09
relative viability (NCI-H838; first compound 0.08 µM): 1.07
relative viability (NCI-H838; first compound 0.8 µM): 1.31
relative viability (NCI-H838; first compound 2.53 µM): 1.02
relative viability (NCI-H838; first compound 8 µM): 1.14
relative viability (NCI-H2347; first compound 0.08 µM): 1.02
relative viability (NCI-H2347; first compound 0.8 µM): 0.929
relative viability (NCI-H2347; first compound 2.53 µM): 0.968
relative viability (NCI-H2347; first compound 8 µM): 0.969
relative viability (NCI-H650; first compound 0.08 µM): 0.677
relative viability (NCI-H650; first compound 0.8 µM): 1.47
relative viability (NCI-H650; first compound 2.53 µM): 0.831
relative viability (NCI-H650; first compound 8 µM): 0.658
relative viability (NCI-H520; first compound 0.08 µM): 0.946
relative viability (NCI-H520; first compound 0.8 µM): 0.729
relative viability (NCI-H520; first compound 2.53 µM): 0.936
relative viability (NCI-H520; first compound 8 µM): 0.862
relative viability (NCI-H1944; first compound 0.08 µM): 0.774
relative viability (NCI-H1944; first compound 0.8 µM): 0.908
relative viability (NCI-H1944; first compound 2.53 µM): 0.841
relative viability (NCI-H1944; first compound 8 µM): 0.65
relative viability (NCI-H596; first compound 0.08 µM): 1.17
relative viability (NCI-H596; first compound 0.8 µM): 1.07
relative viability (NCI-H596; first compound 2.53 µM): 1.12
relative viability (NCI-H596; first compound 8 µM): 1.17
relative viability (EKVX; first compound 0.08 µM): 0.197
relative viability (EKVX; first compound 0.8 µM): 0.528
relative viability (EKVX; first compound 2.53 µM): 0.215
relative viability (EKVX; first compound 8 µM): 0.211
relative viability (H3255; first compound 0.08 µM): 0.225
relative viability (H3255; first compound 0.8 µM): 0.281
relative viability (H3255; first compound 2.53 µM): 0.234
relative viability (H3255; first compound 8 µM): 0.281
relative viability (SW 1573; first compound 0.08 µM): 1.04
relative viability (SW 1573; first compound 0.8 µM): 1.03
relative viability (SW 1573; first compound 2.53 µM): 1.33
relative viability (SW 1573; first compound 8 µM): 1.09
relative viability (LK-2; first compound 0.08 µM): 0.906
relative viability (LK-2; first compound 0.8 µM): 0.991
relative viability (LK-2; first compound 2.53 µM): 1.24
relative viability (LK-2; first compound 8 µM): 0.825
relative viability (NCI-H1755; first compound 0.08 µM): 1.03
relative viability (NCI-H1755; first compound 0.8 µM): 1.04
relative viability (NCI-H1755; first compound 2.53 µM): 1.06
relative viability (NCI-H1755; first compound 8 µM): 0.97
relative viability (NCI-H2085; first compound 0.08 µM): 0.743
relative viability (NCI-H2085; first compound 0.8 µM): 0.92
relative viability (NCI-H2085; first compound 2.53 µM): 0.778
relative viability (NCI-H2085; first compound 8 µM): 0.731
relative viability (NCI-H358; first compound 0.08 µM): 0.452
relative viability (NCI-H358; first compound 0.8 µM): 0.525
relative viability (NCI-H358; first compound 2.53 µM): 0.47
relative viability (NCI-H358; first compound 8 µM): 0.384
relative viability (NCI-H1355; first compound 0.08 µM): 0.878
relative viability (NCI-H1355; first compound 0.8 µM): 1.15
relative viability (NCI-H1355; first compound 2.53 µM): 1.07
relative viability (NCI-H1355; first compound 8 µM): 0.686
relative viability (NCI-H1650; first compound 0.08 µM): 0.762
relative viability (NCI-H1650; first compound 0.8 µM): 0.931
relative viability (NCI-H1650; first compound 2.53 µM): 0.74
relative viability (NCI-H1650; first compound 8 µM): 0.712
relative viability (NCI-H2228; first compound 0.08 µM): 1.36
relative viability (NCI-H2228; first compound 0.8 µM): 1.1
relative viability (NCI-H2228; first compound 2.53 µM): 1.41
relative viability (NCI-H2228; first compound 8 µM): 1.08
relative viability (A-427; first compound 0.08 µM): 1.07
relative viability (A-427; first compound 0.8 µM): 1.05
relative viability (A-427; first compound 2.53 µM): 1.2
relative viability (A-427; first compound 8 µM): 0.947
relative viability (NCI-H1666; first compound 0.08 µM): 0.603
relative viability (NCI-H1666; first compound 0.8 µM): 0.795
relative viability (NCI-H1666; first compound 2.53 µM): 0.761
relative viability (NCI-H1666; first compound 8 µM): 0.616
relative viability (NCI-H322M; first compound 0.08 µM): 0.548
relative viability (NCI-H322M; first compound 0.8 µM): 0.614
relative viability (NCI-H322M; first compound 2.53 µM): 0.726
relative viability (NCI-H322M; first compound 8 µM): 0.561
